Tested on: Wnt activity (Sp5-Luc reporter, Wnt-responsive promoter) in SW480 colon carcinoma cells
Assay: Wnt activity screening assay: Sp5-Luc reporter gene assay in SW480 cells
Type: cell-based
Conditions: Homo sapiens; for inhibition at 10 µM: read-out: percent inhibition at 10 μM (given for EC50 of >10 μM); for EC50: overnight incubation, 10-point curve starting from 10 μM
From the text: The screening assay for Wnt activity is described as follows. Reporter cell lines can be generated by stably transducing cancer cell lines (e.g., colon cancer) or primary cells (e.g., IEC-6 intestinal cells) with a lentiviral construct that includes a Wnt-responsive promoter driving expression of the firefly luciferase gene.
SW480 colon carcinoma cells were transduced with a lentiviral vector expressing luciferase with a human Sp5 promoter consisting of a sequence of eight TCF/LEF binding sites. SW480 cells stably expressing the Sp5-Luc reporter gene and a hygromycin resistance gene were selected by treatment with 150 μg/mL of hygromycin for 7 days. These stably transduced SW480 cells were expanded in cell culture and used for all further screening activities. Each compound was dissolved in DMSO as a 10 mM stock and used to prepare compound source plates. Serial dilution (1:3, 10-point dose-response curves starting from 10 μM) and compound transfer was performed using the ECHO 550 (Labcyte, Sunnyvale, Calif.) into 384-well white solid bottom assay plates (Greiner Bio-One) with appropriate DMSO backfill for a final DMSO concentration of 0.1%. For Sp5-Luc reporter gene assays, the cells were plated at 4,000 cells/well in 384-well plates with medium containing 1% fetal bovine serum and incubated overnight at 37° C. and 5% CO2. Following incubation, 20 μl of BrightGlo luminescence reagent (Promega) was added to each well of the 384-well assay plates. The plates were placed on an orbital shaker for 2 min and then luminescence was quantified using the Envision (Perkin Elmer) plate reader. Readings were normalized to DMSO only treated cells, and normalized activities were utilized for EC50 calculations using the dose-response log (inhibitor) vs. response-variable slope (four parameters) nonlinear regression feature available in GraphPad Prism 5.0 (or Dotmatics). For EC50 of >10 μM, the percent inhibition at 10 μM is provided.

Question: Which inhibition at 10 µM does the source give for O=C(CC1CCNCC1)Nc1cncc(-c2ccc3[nH]nc(-c4nc5c(-c6ccsc6)cccc5[nH]4)c3n2)c1 [Compound 673, 2-(Piperidin-4-yl)-N-(5-(3-(4-(thiophen-3-yl)-1H-benzo[d]imidazol-2-yl)-1H-pyrazolo[4,3-b]pyridin-5-yl)pyridin-3-yl)acetamide] here?
Answer: Its inhibition at 10 µM is 14.9%.

Question: And the EC50?
Answer: Its EC50 is over 10 µM.

Question: For Cc1ncc(-c2ccc3[nH]nc(-c4nc5c(-c6ccoc6)cccc5[nH]4)c3n2)n1C [Compound 685, 5-(1,2-Dimethyl-1H-imidazol-5-yl)-3-(4-(furan-3-yl)-1H-benzo[d]imidazol-2-yl)-1H-pyrazolo[4,3-b]pyridine], which EC50 is on record?
Answer: The EC50 was 0.257 µM.

Question: Which EC50 does the source give for c1cc(-c2ccoc2)c2nc(-c3n[nH]c4ccc(-c5cncc(OCCN6CCCC6)c5)nc34)[nH]c2c1 [Compound 690, 3-(4-(Furan-3-yl)-1H-benzo[d]imidazol-2-yl)-5-(5-(2-(pyrrolidin-1-yl)ethoxy)pyridin-3-yl)-1H-pyrazolo[4,3-b]pyridine] here?
Answer: The EC50 was 4.21 µM.

Question: For COc1cncc(-c2ccc3[nH]nc(-c4nc5c(-c6ccoc6)cccc5[nH]4)c3n2)c1 [Compound 692, 3-(4-(Furan-3-yl)-1H-benzo[d]imidazol-2-yl)-5-(5-methoxypyridin-3-yl)-1H-pyrazolo[4,3-b]pyridine], which EC50 is on record?
Answer: Its EC50 is 1.37 µM.

Question: What does the source list for Cn1cc(-c2ccc3[nH]nc(-c4nc5c(-c6cccs6)cccc5[nH]4)c3n2)cn1 [Compound 700, 5-(1-Methyl-1H-pyrazol-4-yl)-3-(4-(thiophen-2-yl)-1H-benzo[d]imidazol-2-yl)-1H-pyrazolo[4,3-b]pyridine]?
Answer: inhibition at 10 µM: 37.8%; EC50: > 10 µM

Question: With Cc1ccc(-c2cccc3[nH]c(-c4n[nH]c5ccc(C6=CCNCC6)nc45)nc23)s1 [Compound 730, 3-(4-(5-Methylthiophen-2-yl)-1H-benzo[d]imidazol-2-yl)-5-(1,2,3,6-tetrahydropyridin-4-yl)-1H-pyrazolo[4,3-b]pyridine] as the compound, how does the EC50 read?
Answer: Its EC50 is 1.01 µM.

Question: Which EC50 does the source give for Cc1ccc(-c2cccc3[nH]c(-c4n[nH]c5ccc(-c6cncc(OC7CCCCC7)c6)nc45)nc23)s1 [Compound 735, 5-(5-(Cyclohexyloxy)pyridin-3-yl)-3-(4-(5-methylthiophen-2-yl)-1H-benzo [d]imidazol-2-yl)-1H-pyrazolo[4,3-b]pyridine] here?
Answer: The EC50 was 3.81 µM.

Question: For Cn1cc(-c2ccc3[nH]nc(-c4nc5c(-c6cc(F)cc(CNS(C)(=O)=O)c6)cccc5[nH]4)c3n2)cn1 [Compound 764, N-(3-Fluoro-5-(2-(5-(1-methyl-1H-pyrazol-4-yl)-1H-pyrazolo[4,3-b]pyridin-3-yl)-1H-benzo[d]imidazol-4-yl)benzyl)methanesulfonamide], which EC50 is on record?
Answer: The EC50 was 0.539 µM.

Question: Which results are given for CS(=O)(=O)NCc1cc(F)cc(-c2cccc3[nH]c(-c4n[nH]c5ccc(-c6cncc(NC(=O)CC7CCNCC7)c6)nc45)nc23)c1 [Compound 769, N-(5-(3-(4-(3-Fluoro-5-(methylsulfonamidomethyl)phenyl)-1H-benzo[d]imidazol-2-yl)-1H-pyrazolo[4,3-b]pyridin-5-yl)pyridin-3-yl)-2-(piperidin-4-yl)acetamide]?
Answer: inhibition at 10 µM: 12.3%; EC50: > 10 µM

Question: Which EC50 does the source give for Cc1ncc(-c2ccc3[nH]nc(-c4nc5c(-c6cc(F)cc(NCCN(C)C)c6)cccc5[nH]4)c3n2)n1C [Compound 781, N^1-(3-(2-(5-(1,2-Dimethyl-1H-imidazol-5-yl)-1H-pyrazolo[4,3-b]pyridin-3-yl)-1H-benzo[d]imidazol-4-yl)-5-fluorophenyl)-N^2,N^2-dimethylethane-1,2-diamine] here?
Answer: The EC50 was 0.48 µM.

Question: With CN(C)CCNc1cc(F)cc(-c2cccc3[nH]c(-c4n[nH]c5ccc(-c6cncc(OCCN7CCCC7)c6)nc45)nc23)c1 [Compound 786, N^1-(3-Fluoro-5-(2-(5-(5-(2-(pyrrolidin-1-yl)ethoxy)pyridin-3-yl)-1H-pyrazolo[4,3-b]pyridin-3-yl)-1H-benzo[d]imidazol-4-yl)phenyl)-N^2,N^2-dimethylethane-1,2-diamine] as the compound, how does the EC50 read?
Answer: The EC50 was 3.11 µM.

Question: For CN(C)CCNc1cc(F)cc(-c2cccc3[nH]c(-c4n[nH]c5ccc(-c6cncc(OCc7ccccc7)c6)nc45)nc23)c1 [Compound 790, N^1-(3-(2-(5-(5-(Benzyloxy)pyridin-3-yl)-1H-pyrazolo[4,3-b]pyridin-3-yl)-1H-benzo[d]imidazol-4-yl)-5-fluorophenyl)-N^2,N^2-dimethylethane-1,2-diamine], which EC50 is on record?
Answer: The EC50 was 1.12 µM.

Question: CN(C)CCNc1cc(F)cc(-c2cccc3[nH]c(-c4n[nH]c5ccc(-c6cnccn6)nc45)nc23)c1 [Compound 792, N^1-(3-Fluoro-5-(2-(5-(pyrazin-2-yl)-1H-pyrazolo[4,3-b]pyridin-3-yl)-1H-benzo[d]imidazol-4-yl)phenyl)-N^2,N^2-dimethylethane-1,2-diamine] was tested. Which EC50 did it give?
Answer: The EC50 was 3.96 µM.

Question: COc1cccc(-c2cccc3[nH]c(-c4n[nH]c5ccc(-c6cncc(NC(=O)CC(C)(C)C)c6)nc45)nc23)c1 [Compound 1006, N-(5-(3-(4-(3-methoxyphenyl)-1H-benzo[d]imidazol-2-yl)-1H-pyrazolo[4,3-b]pyridin-5-yl)pyridin-3-yl)-3,3-dimethylbutanamide] was tested. Which EC50 did it give?
Answer: Its EC50 is 2.41 µM.

Question: How did the inhibition at 10 µM turn out when COc1cccc(-c2cccc3[nH]c(-c4n[nH]c5ccc(-c6cncc(NC(=O)C7CCCCC7)c6)nc45)nc23)c1 [Compound 1012, N-(5-(3-(4-(3-Methoxyphenyl)-1H-benzo[d]imidazol-2-yl)-1H-pyrazolo[4,3-b]pyridin-5-yl)pyridin-3-yl)cyclohexanecarboxamide] was run?
Answer: Its inhibition at 10 µM is 3.6%.

Question: And the EC50?
Answer: The EC50 was over 10 µM.

Question: Which results are given for COc1cccc(-c2cccc3[nH]c(-c4n[nH]c5ccc(-c6cn[nH]c6)nc45)nc23)c1 [Compound 1020, 3-(4-(3-Methoxyphenyl)-1H-benzo[d]imidazol-2-yl)-5-(1H-pyrazol-4-yl)-1H-pyrazolo[4,3-b]pyridine]?
Answer: inhibition at 10 µM: 18.9%; EC50: > 10 µM

Question: Which EC50 does the source give for COc1cccc(-c2cccc3[nH]c(-c4n[nH]c5ccc(-c6cncc(OC7CCNCC7)c6)nc45)nc23)c1 [Compound 1025, 3-(4-(3-Methoxyphenyl)-1H-benzo[d]imidazol-2-yl)-5-(5-(piperidin-4-yloxy)pyridin-3-yl)-1H-pyrazolo[4,3-b]pyridine] here?
Answer: Its EC50 is 3.97 µM.

Question: COc1cccc(-c2cccc3[nH]c(-c4n[nH]c5ccc(-c6cncc(O)c6)nc45)nc23)c1 [Compound 1030, 5-(3-(4-(3-Methoxyphenyl)-1H-benzo[d]imidazol-2-yl)-1H-pyrazolo[4,3-b]pyridin-5-yl)pyridin-3-ol] was tested. Which EC50 did it give?
Answer: The EC50 was 0.98 µM.

Question: Which EC50 does the source give for NC1CN(c2cncc(-c3ccc4[nH]nc(-c5nc6c(-c7ccc(Cl)s7)cccc6[nH]5)c4n3)n2)C1 [Compound 1068, 1-(6-(3-(4-(5-Chlorothiophen-2-yl)-1H-benzo[d]imidazol-2-yl)-1H-pyrazolo [4,3-b]pyridin-5-yl)pyrazin-2-yl)azetidin-3-amine] here?
Answer: Its EC50 is 1.24 µM.

Question: With c1cc(-c2ccc3c(c2)OCO3)c2nc(-c3n[nH]c4ccc(C5CCNCC5)nc34)[nH]c2c1 [Compound 1108, 3-(4-(Benzo[d][1,3]dioxol-5-yl)-1H-benzo[d]imidazol-2-yl)-5-(piperidin-4-yl)-1H-pyrazolo[4,3-b]pyridine] as the compound, how does the EC50 read?
Answer: Its EC50 is 3.52 µM.

Question: C1=C(c2ccc3[nH]nc(-c4nc5c(-c6ccc7c(c6)OCO7)cccc5[nH]4)c3n2)CCNC1 [Compound 1109, 3-(4-(Benzo[d][1,3]dioxol-5-yl)-1H-benzo[d]imidazol-2-yl)-5-(1,2,3,6-tetrahydropyridin-4-yl)-1H-pyrazolo[4,3-b]pyridine] was tested. Which EC50 did it give?
Answer: Its EC50 is 1.08 µM.

Question: With Cn1cc(-c2ccc3[nH]nc(-c4nc5c(-c6ccc(F)cc6)cccc5[nH]4)c3n2)c(CO)n1 [Compound 1129, (4-(3-(4-(4-Fluorophenyl)-1H-benzo[d]imidazol-2-yl)-1H-pyrazolo[4,3-b]pyridin-5-yl)-1-methyl-1H-pyrazol-3-yl)methanol] as the compound, how does the EC50 read?
Answer: Its EC50 is 2.2 µM.

Question: For Cn1cc(-c2ccc3[nH]nc(-c4nc5c(N6CCCCC6)cccc5[nH]4)c3n2)c(CO)n1 [Compound 1134, (1-Methyl-4-(3-(4-(piperidin-1-yl)-1H-benzo[d]imidazol-2-yl)-1H-pyrazolo [4,3-b]pyridin-5-yl)-1H-pyrazol-3-yl)methanol], which EC50 is on record?
Answer: The EC50 was 3.39 µM.

Question: Cn1cc(-c2ccc3[nH]nc(-c4nc5c(-c6ccc7c(c6)OCO7)cccc5[nH]4)c3n2)c(CO)n1 [Compound 1152, (4-(3-(4-(Benzo[d][1,3]dioxol-5-yl)-1H-benzo[d]imidazol-2-yl)-1H-pyrazolo[4,3-b]pyridin-5-yl)-1-methyl-1H-pyrazol-3-yl)methanol] was tested. Which EC50 did it give?
Answer: Its EC50 is 0.929 µM.

Source: US10392383B2, “3-(1H-benzo[d]imidazol-2-yl)-1H-pyrazolo[4,3-b]pyridines and therapeutic uses thereof” (Samumed, LLC, priority 2015, dated 2019)
